# Experiments:
# S. aureus RN4220 [1] = assay: Resazurin broth microdilution assay (resazurin vitality assay); type: cell-based, Staphylococcus aureus; details: for MIC: RP-HPLC purified fractions, MIC = concentration giving ≥ 90% inhibition of growth by fluorometric reading, range 9.8 to 625 µg/mL, 1 h at 37 °C, then resazurin 1.5 h, triplicate, independent duplicate experiments; for IC50: derived from sigmoidal dose-response curves (GraphPad Prism, nonlinear regression, best-fit)
# Protocol: The RP-HPLC purified fractions were tested for antibacterial activity using a broth microdilution assay coupled with the metabolic dye, resazurin[20] against S. aureus RN4220. The principle of the assay was based on the rate of reduction of the resazurin dye to resorufin, with survival of the cell equated to an increased conversion of this dye, while a decreased rate of conversion indicates impairment of cellular metabolism and was thus equated to cell death. Briefly, the test strain was inoculated into 10 mL of cation adjusted-Mueller Hinton broth (Sigma-Aldrich) (CA-MHB containing […]) and incubated at 37 °C for 18 to 24 h. Following overnight incubation, the culture was diluted into the respective media and grown to mid-log phase to obtain an optical density (OD) at 0.3 (± 1.4 × 10^8 cells mL^-1) determined at 600 nm.
# The RP-HPLC fractions were then diluted in MeCN to a concentration of […]. Fifty microlitres of each fraction was dispensed into the first row of the respective wells of a clear Greiner CELLSTAR® 96-well culture plate (Merck, Johannesburg, South Africa) containing 50 μL of analytical quality H2O, in triplicate. A microdilution was performed in the 96-well culture in 50 μL of sterile analytical quality H2O in each well and the plate was dried at 50 °C for 18 to 24 h to remove the solvent. Thereafter, 10 μL of target cells in mid-log phase at the adjusted OD was dispensed into each well, resulting in a final antimicrobial concentration range of each fraction from 9.8 to 625 µg/mL and incubated for 1 h at 37 °C. After 1 h incubation, 90 μL of phosphate buffered saline (PBS) was added to each well, followed by 10 μL of resazurin [prepared to a stock solution 0.3 mg/mL in PBS; Sigma-Aldrich (St Louis, MO, USA)]. The plate was then incubated at 37 °C for 1.5 h. Finally, fluorometric readings of the plate were conducted using a Tecan Spark 10 M Multimode Microplate Reader at 560 nm excitation wavelength and 590 nm emission wavelength. Sterile broth and the OD adjusted inoculum were included in the assay as a positive control, while sterile broth was included as a negative control. Tests were performed in triplicate, with independent duplicate experiments.
# The percentage inhibition was calculated as described by van Rensburg et al.[20]. […] The MIC vs retention time was plotted using Graphpad Prism version 3.01 for Windows [GraphPad Software, San Diego, USA (www.graphpad.com)].
# [2] = UPLC C18 retention time used as measure of hydrophobicity; type: physicochemical; details: chromatographic; UPLC-MS of NP10 crude extract; C18 Acquity UPLC HSS T3 1.8 μm, 2.1 × 150 mm; H2O/MeCN with 0.1% formic acid; 40 to 95% B from 0.5 to 15 min; 0.300 mL/min
# Protocol: The pooled NP10 crude extract was analysed using UPLC-MS^E at the Liquid Chromatography Mass Spectrometry (LCMS) unit at the Central Analytical Facility (CAF, SU) as outlined in Clements-Decker et al.[4]. Briefly, the UPLC-MS^E was conducted on a Waters Synapt G2 high resolution mass spectrometer linked to an Acquity UPLC™ (Waters Corporation, Milford, USA). Three microlitres (1.00 mg/mL) was separated on an UPLC C18 reverse-phase analytical column (Acquity UPLC® HSS T3, 1.8 μm particle size, 2.1 × 150 mm, Waters Corporation, Dublin, Ireland). The UPLC was conducted with analytical quality H2O containing 0.1% (v/v) formic acid as solution A and MeCN containing 0.1% (v/v) formic acid as solution B at a flow rate of 0.300 mL/min as follows: 60% A from 0 to 0.5 min for loading, linear gradient from 40 to 95% (B) from 0.5 to 15 min and 95 to 40% (B) from 15 to 18 min. The positive mode ESI conditions included: 2.5 kV capillary voltage, 15 V cone voltage, 120 °C source temperature, desolvation temperature of 275 °C, 50 L/h cone gas flow, 650 L/h desolvation gas flow, and m/z range of 200 to 2000 in centroid mode.
# S. aureus RN4220 [3] = assay: Membrane depolarisation assay: DiSC3(5); type: cell-based, Staphylococcus aureus; details: for Time to membrane depolarisation / Time to two-fold increase in DiSC3(5) fluorescent signal: at MIC; for Time to membrane depolarisation: DiSC3(5) assay; for Time to two-fold increase in DiSC3(5) fluorescent signal: from the initial reading at 120 s; for DiSC3(5) fluorescence (membrane depolarisation): ½MIC, MIC and two-fold MIC, DiSC3(5) 0.4 µM, read over 12 min
# Protocol: To gain insight into whether stephensiolides and glucosamine derivatives cause membrane depolarisation of S. aureus, membrane potential was assessed by monitoring the release of the voltage-sensitive dye 3,3′-dipropylthiadicarbocyanine iodide [DiSC3(5)][25],[26].
# The membrane depolarisation capabilities (ability to disrupt membrane potential) of GluA, GluC, StpK and StpU against S. aureus RN4220 was determined using the voltage-sensitive fluorescent probe, 3,3'-dipropylthiadicarbocyanine iodide [DiSC3(5)][25],[39]. Due to the cationic charge and hydrophobic nature of DiSC3(5), the fluorescent dye can penetrate and accumulate in lipid bilayers until Nernstian equilibrium is reached, resulting in the quenching of the fluorescent signal. Once depolarisation occurs (i.e., changes in ion permeability and dissipating transmembrane potential), the dye is rapidly released into the medium and subsequently results in the dequenching of the fluorescent signal. Briefly, black 96 well plates were prepared with the selected four compounds at two-fold MIC, MIC and ½MIC as described in the “Resazurin Broth Microdilution Assay” section. The S. aureus RN4220 strain was prepared in CA-MHB and grown to mid-log phase to obtain an OD600 of 0.5–0.6. Cells were harvested by centrifugation at 3000 rpm for 10 min and resuspended in HEPES buffer (5 mM, pH 7.4, containing 20 mM glucose; 100 mM KCl) to OD600 of 0.05. Thereafter, DiSC3(5) (stock concentration of 400 µM in 100% DMSO) was added to the cell suspension to a final concentration of 0.4 µM and cells were incubated in the dark at room temperature for 60 min. Cell suspensions (100 µL) were then dispensed into the wells of the 96 well plate containing the compounds. Sterile broth and the OD adjusted inoculum with DiSC3(5) were included as a non-fluorescent control, sterile broth with DiSC3(5) was included as a sterility control, and melittin was included as membrane depolarisation control. Fluorometric readings of the plate were conducted in 2 min intervals over 12 min (readings began 120 s after cells were added to the compounds) using a Tecan Spark at 622 nm excitation wavelength and 670 nm emission wavelength.
# S. aureus RN4220 [4] = assay: Membrane permeability assay: propidium iodide uptake; type: cell-based, Staphylococcus aureus; details: PI 10 µg/mL; for Time to two-fold increase in PI fluorescence from the initial reading: at MIC; for PI fluorescence (membrane permeabilisation): ½MIC and MIC, read over 60 min
# Protocol: To gain insight into whether stephensiolides and glucosamine derivatives cause increased membrane permeability by forming lesions within the cell membrane of S. aureus, membrane permeability was assessed by monitoring the influx of propidium iodide (PI) and subsequent staining of nucleic acids within the cell, resulting in a fluorescent signal[23],[24]. Fluorescence was measured for 1 h at the MIC and ½MIC of compounds 12, 14, 22 and 26 (Fig. 5a and b).
# The membrane permeability capabilities of GluA, GluC, StpK and StpU on S. aureus RN4220 was determined using propidium iodide (PI) (Sigma-Aldrich; St. Louis, MO, USA)[23]. This fluorescent dye can only enter bacterial cells through membrane lesions that are big enough to allow the large molecule (PI has a molecular mass of 668.087 g/mol) to pass through, thus providing an indication of changes in membrane permeability. Briefly, black Greiner CELLSTAR 96-well plates (Merck, Johannesburg, South Africa) were prepared with the selected four compounds at MIC and ½MIC and dried as described in the “Resazurin Broth Microdilution Assay” section. The S. aureus RN4220 strain was prepared in CA-MHB and grown to mid-log phase (OD600 of 0.5–0.6) and diluted to OD600 of 0.3. Propidium iodide (stock concentration of 1 mg/mL in water) was added to the cell suspension to a final concentration of 10 µg/mL and cells were incubated in the dark at room temperature for 10 min. Thereafter, 100 µL of OD adjusted PI cells in mid-log phase was dispensed into each well. Sterile broth and the OD adjusted inoculum with PI were included as a positive control, while sterile broth with PI was included as a negative control. Melittin served as a positive lytic control. Fluorometric readings of the plate were conducted in 2 min intervals over 60 min (readings began 120 s after cells were added to the compounds) using a Tecan Spark at 535 nm excitation wavelength and 617 nm emission wavelength.
Substance,MIC (S. aureus RN4220 [1]) [mg/L],"Rt (retention time, hydrophobicity) [2] [min]",also measured
Stephensiolide U [Compound 12],78,9.57,IC50 (S. aureus RN4220 [1]): 53 mg/L; Time to membrane depolarisation (S. aureus RN4220 [3]): ≤ 8 min; Time to two-fold increase in DiSC3(5) fluorescent signal (S. aureus RN4220 [3]): 480 s; DiSC3(5) fluorescence (membrane depolarisation) (S. aureus RN4220 [3]): induced an increase in DiSC3(5) fluorescence at all concentrations tested; Time to two-fold increase in PI fluorescence from the initial reading (S. aureus RN4220 [4]): ≤ 28 min; PI fluorescence (membrane permeabilisation) (S. aureus RN4220 [4]): induced an increase in PI fluorescence over time
Stephensiolide Y [Compound 17],–,11.88,–
Stephensiolide V [Compound 13],–,9.74,–
melittin [reference compound],–,–,Time to rapid depolarisation (control) (S. aureus RN4220 [3]; depolarisation control): ≤ 240 s; PI fluorescence (membrane permeabilisation) (S. aureus RN4220 [4]): expected increase in fluorescence signal
Stephensiolide P [Compound 7],–,7.00,–
Stephensiolide T [Compound 11],≥ 300,8.92,MIC (S. aureus RN4220 [1]; listed as StpT): no activity observed
Stephensiolide X [Compound 16],–,10.87,–
Stephensiolide L [Compound 1],–,5.46,–
Stephensiolide K [Compound 14],39,10.37,IC50 (S. aureus RN4220 [1]): 25 mg/L; Time to membrane depolarisation (S. aureus RN4220 [3]): ≤ 12 min; Time to two-fold increase in DiSC3(5) fluorescent signal (S. aureus RN4220 [3]): 720 s; DiSC3(5) fluorescence (membrane depolarisation) (S. aureus RN4220 [3]): induced an increase in DiSC3(5) fluorescence at all concentrations tested; Time to two-fold increase in PI fluorescence from the initial reading (S. aureus RN4220 [4]): ≤ 36 min; PI fluorescence (membrane permeabilisation) (S. aureus RN4220 [4]): induced an increase in PI fluorescence over time
Stephensiolide M [Compound 2],–,6.45,–
Stephensiolide O [Compound 6],–,6.28,–
Stephensiolide N [Compound 3],≥ 300,7.17,–
Stephensiolide W [Compound 15],–,10.31,–
Stephensiolide S [Compound 10],–,8.01,–
Stephensiolide Q [Compound 8],≥ 300,8.09,–
Stephensiolide R [Compound 9],≥ 300,8.79,–

# Reference: article PMC9911388, “Secondary metabolic profiling of Serratia marcescens NP10 reveals new stephensiolides and glucosamine derivatives with bacterial membrane activity” (Scientific Reports, 2023)
